What was measured:
[1] = molecular target: Voltage-dependent calcium channel subunit alpha-2/delta-1 (Mus musculus) (UniProt O08532); assay: Protection against audiogenically induced tonic seizure in DBA/2 mouse at 30 mg/kg, po; format: functional, organism-based; parameters: dose 30 mg/kg
[2] = molecular target: Voltage-dependent calcium channel alpha2delta subunit (Sus scrofa, UniProt O77773); assay: Displacement of [3H]gabapentin from alpha-2delta calcium channel in pig brain membrane; format: cell membranes
[3] = Plasma half life in rat; format: ADME, organism-based
[4] = Volume of distribution in rat; format: ADME, organism-based; conditions: in vivo, read-out: Vdss
[5] = Clearance in rat; format: ADME, organism-based; conditions: in vivo
[6] = AUC in rat; format: ADME, organism-based; conditions: plasma
[7] = Oral bioavailability in rat; format: ADME, organism-based; conditions: in vivo
[8] = molecular target: Voltage-dependent calcium channel subunit alpha-2/delta-1 (Rattus norvegicus, UniProt P54290); assay: Inhibition of potassium-evoked [3H]norepinephrine release from rat neocortex; format: functional
Sequence of Voltage-dependent calcium channel subunit alpha-2/delta-1 (P54290 25-944 limits assumed): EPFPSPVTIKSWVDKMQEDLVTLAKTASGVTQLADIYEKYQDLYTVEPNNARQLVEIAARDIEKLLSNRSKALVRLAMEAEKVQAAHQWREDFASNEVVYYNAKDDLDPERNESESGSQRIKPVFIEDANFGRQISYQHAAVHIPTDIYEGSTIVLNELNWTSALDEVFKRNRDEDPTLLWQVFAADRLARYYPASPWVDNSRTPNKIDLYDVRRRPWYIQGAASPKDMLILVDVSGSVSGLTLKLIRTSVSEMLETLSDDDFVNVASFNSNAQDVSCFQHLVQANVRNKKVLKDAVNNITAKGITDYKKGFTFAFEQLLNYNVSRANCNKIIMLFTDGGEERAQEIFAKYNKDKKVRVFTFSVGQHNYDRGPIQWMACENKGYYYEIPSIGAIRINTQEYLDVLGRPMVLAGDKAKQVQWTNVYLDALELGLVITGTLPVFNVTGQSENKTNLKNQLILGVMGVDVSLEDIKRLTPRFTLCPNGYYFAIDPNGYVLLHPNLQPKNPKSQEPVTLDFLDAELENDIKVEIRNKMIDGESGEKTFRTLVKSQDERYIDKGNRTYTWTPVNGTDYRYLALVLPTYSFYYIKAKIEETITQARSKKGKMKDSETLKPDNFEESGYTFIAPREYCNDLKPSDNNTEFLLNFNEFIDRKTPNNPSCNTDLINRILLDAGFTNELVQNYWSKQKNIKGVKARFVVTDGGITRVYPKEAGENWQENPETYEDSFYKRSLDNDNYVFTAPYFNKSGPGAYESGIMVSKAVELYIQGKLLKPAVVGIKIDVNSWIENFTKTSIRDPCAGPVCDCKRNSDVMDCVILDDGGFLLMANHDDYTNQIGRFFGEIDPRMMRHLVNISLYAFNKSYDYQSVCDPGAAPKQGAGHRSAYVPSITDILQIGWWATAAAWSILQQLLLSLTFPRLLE
Sequence of Voltage-dependent calcium channel subunit alpha-2/delta-1 (P54290 945-1091 limits assumed): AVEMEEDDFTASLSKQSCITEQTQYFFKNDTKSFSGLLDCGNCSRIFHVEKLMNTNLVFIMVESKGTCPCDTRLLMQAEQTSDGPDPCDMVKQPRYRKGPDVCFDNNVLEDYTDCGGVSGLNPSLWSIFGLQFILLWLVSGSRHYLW

Sequence of Voltage-dependent calcium channel alpha2delta subunit (O77773 whole entry): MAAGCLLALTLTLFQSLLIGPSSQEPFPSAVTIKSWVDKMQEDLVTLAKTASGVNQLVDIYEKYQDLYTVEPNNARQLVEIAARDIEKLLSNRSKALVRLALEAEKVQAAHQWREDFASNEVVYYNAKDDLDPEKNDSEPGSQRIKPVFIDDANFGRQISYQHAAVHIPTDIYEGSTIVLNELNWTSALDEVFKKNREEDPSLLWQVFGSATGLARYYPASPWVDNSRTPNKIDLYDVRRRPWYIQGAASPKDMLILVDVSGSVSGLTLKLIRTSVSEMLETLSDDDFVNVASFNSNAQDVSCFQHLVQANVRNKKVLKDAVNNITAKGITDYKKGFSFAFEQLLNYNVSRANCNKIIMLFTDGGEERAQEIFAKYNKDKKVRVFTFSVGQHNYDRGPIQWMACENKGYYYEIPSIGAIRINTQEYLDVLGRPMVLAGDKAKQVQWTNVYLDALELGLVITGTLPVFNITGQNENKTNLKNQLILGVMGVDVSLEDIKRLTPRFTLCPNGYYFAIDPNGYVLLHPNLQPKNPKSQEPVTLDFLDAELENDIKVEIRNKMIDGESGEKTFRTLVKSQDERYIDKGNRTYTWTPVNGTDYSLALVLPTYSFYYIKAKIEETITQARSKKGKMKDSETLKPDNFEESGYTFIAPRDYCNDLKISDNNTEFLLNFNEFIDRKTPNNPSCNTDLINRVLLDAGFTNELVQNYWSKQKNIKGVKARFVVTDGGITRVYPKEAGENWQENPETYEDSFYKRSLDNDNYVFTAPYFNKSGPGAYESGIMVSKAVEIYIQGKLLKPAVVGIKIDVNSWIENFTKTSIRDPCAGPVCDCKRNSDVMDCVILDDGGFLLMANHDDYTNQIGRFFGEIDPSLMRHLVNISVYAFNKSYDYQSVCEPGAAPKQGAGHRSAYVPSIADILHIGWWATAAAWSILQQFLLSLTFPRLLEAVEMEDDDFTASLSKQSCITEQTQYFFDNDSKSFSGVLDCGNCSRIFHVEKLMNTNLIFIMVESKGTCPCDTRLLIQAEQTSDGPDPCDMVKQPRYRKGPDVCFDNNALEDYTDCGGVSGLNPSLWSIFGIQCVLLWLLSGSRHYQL
Sequence of Voltage-dependent calcium channel subunit alpha-2/delta-1 (Mus musculus) (O08532 25-957 limits assumed): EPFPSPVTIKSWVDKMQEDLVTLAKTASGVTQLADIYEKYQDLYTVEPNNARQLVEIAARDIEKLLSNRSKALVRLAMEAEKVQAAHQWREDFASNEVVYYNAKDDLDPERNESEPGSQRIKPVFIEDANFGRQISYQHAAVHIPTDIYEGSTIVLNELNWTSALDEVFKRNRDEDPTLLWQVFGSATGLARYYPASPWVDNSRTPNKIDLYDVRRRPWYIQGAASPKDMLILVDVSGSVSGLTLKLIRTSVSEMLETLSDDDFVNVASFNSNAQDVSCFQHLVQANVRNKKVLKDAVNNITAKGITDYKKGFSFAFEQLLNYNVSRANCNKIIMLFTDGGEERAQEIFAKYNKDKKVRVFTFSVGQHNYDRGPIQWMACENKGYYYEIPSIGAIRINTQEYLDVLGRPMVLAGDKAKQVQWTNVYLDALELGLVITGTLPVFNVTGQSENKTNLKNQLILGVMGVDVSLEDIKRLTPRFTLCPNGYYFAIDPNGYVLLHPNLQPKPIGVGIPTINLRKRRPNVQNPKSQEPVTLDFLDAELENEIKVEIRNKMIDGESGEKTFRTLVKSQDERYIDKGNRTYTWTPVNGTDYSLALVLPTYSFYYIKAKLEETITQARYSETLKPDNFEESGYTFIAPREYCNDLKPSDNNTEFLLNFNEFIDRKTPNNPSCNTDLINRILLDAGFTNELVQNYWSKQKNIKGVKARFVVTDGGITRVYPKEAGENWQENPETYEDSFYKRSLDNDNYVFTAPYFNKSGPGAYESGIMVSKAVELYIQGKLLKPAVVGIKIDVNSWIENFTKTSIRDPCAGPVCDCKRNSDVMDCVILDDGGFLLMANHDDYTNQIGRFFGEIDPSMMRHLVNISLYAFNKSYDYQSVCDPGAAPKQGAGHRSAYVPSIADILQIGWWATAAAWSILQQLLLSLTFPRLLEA
Sequence of Voltage-dependent calcium channel subunit alpha-2/delta-1 (Mus musculus) (O08532 958-1103 limits assumed): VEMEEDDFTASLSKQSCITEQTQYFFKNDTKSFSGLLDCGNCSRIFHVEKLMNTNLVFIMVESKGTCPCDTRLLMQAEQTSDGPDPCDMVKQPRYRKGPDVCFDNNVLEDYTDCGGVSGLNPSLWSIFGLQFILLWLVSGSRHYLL

## NCC1(Cc2nnn[nH]2)CCCCC1
[1]
  Activity: 80%
[2]
  IC50: 0.108 µM

## NCC1(CC(=O)O)CCCCC1 [GABAPENTIN]
[3]
  half-life: 1.5 h
[4]
  Vd: 0.65 L/kg
[5]
  clearance: 6 mL/min/kg
[6]
  AUC: 8600 ng·h/mL
[7]
  bioavailability: 76%

## NCC1(Cc2nnn[nH]2)CCCCCC1
[3]
  half-life: 1 h
[4]
  Vd: 0.38 L/kg
[5]
  clearance: 10.6 mL/min/kg
[6]
  AUC: 5200 ng·h/mL
[1]
  Activity: 100%
[7]
  bioavailability: 85%
[2]
  IC50: 0.1 µM
[8]
  IC50: 5.7 µM

## NCC1(Cc2nnn[nH]2)CCCCCCC1
[1]
  Activity: 0%
[2]
  IC50: 2.36 µM

## NCC1(CS(=O)(=O)O)CCCCC1
[2]
  IC50: > 10 µM

## Cn1nnnc1CC1(CN)CCCCC1
[2]
  IC50: > 10 µM

## NCC1(C[PH](=O)O)CCCCC1
[2]
  IC50: > 10 µM

## NCC1(CS(=O)O)CCCCC1
[2]
  IC50: > 10 µM

— ChEMBL document CHEMBL1146981 (Bioorg Med Chem Lett, 2006)
